The values below come from paper PMC5513037, “Examining the influence of specificity ligands and ATP-competitive ligands on the overall effectiveness of bivalent kinase inhibitors” (Proteome Science, 2017).

pIC50: −log10 of the molar value.

Holding throughout (assay): KAM-matrix competition in K562 lysate
Common to all, as to assay type: binding

One test addresses T1, RAF1 (Homo sapiens, UniProt P04049).
T1 construct: endogenous in cells; host or cells: K562
On the procedure: (§1) Supplement 12953_2017_125_MOESM1_ESM.zip/MS_Supp Info.xlsx, sheet "KAM" | column: 10 uM KAM; 1 uM KAM; 0.1 uM KAM; 0.01 uM KAM; 0.001 uM KAM; RB50

In the next test the target is T2, TNK1 (Homo sapiens, UniProt Q13470).
T2 construct: endogenous in cells; host or cells: K562
T2 sequence (Q13470 1-666): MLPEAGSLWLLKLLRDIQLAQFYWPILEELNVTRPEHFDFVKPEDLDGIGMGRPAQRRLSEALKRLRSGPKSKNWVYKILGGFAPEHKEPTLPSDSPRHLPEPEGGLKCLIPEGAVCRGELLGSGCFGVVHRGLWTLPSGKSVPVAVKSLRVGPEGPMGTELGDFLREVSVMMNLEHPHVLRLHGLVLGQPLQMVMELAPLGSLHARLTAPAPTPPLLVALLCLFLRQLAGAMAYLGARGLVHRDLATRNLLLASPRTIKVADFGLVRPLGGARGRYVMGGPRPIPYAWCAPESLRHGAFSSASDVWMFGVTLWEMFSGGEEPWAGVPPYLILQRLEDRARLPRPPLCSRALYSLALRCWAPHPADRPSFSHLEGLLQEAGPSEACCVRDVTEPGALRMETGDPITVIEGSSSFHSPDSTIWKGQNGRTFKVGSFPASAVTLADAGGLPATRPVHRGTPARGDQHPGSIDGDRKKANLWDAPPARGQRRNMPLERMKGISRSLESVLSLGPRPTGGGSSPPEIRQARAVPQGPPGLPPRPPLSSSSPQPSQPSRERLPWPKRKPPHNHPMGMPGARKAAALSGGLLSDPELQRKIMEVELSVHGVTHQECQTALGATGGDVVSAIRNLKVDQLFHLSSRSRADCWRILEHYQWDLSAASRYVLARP
On the procedure:
as §1

A further test addresses T3, CLK2 (Homo sapiens, UniProt P49760).
T3 construct: endogenous in cells; host or cells: K562
The procedure: as §1

In a further test the target is T4, EPHB4 (Homo sapiens, UniProt P54760).
T4 construct: endogenous in cells; host or cells: K562
T4 sequence (P54760 16-987): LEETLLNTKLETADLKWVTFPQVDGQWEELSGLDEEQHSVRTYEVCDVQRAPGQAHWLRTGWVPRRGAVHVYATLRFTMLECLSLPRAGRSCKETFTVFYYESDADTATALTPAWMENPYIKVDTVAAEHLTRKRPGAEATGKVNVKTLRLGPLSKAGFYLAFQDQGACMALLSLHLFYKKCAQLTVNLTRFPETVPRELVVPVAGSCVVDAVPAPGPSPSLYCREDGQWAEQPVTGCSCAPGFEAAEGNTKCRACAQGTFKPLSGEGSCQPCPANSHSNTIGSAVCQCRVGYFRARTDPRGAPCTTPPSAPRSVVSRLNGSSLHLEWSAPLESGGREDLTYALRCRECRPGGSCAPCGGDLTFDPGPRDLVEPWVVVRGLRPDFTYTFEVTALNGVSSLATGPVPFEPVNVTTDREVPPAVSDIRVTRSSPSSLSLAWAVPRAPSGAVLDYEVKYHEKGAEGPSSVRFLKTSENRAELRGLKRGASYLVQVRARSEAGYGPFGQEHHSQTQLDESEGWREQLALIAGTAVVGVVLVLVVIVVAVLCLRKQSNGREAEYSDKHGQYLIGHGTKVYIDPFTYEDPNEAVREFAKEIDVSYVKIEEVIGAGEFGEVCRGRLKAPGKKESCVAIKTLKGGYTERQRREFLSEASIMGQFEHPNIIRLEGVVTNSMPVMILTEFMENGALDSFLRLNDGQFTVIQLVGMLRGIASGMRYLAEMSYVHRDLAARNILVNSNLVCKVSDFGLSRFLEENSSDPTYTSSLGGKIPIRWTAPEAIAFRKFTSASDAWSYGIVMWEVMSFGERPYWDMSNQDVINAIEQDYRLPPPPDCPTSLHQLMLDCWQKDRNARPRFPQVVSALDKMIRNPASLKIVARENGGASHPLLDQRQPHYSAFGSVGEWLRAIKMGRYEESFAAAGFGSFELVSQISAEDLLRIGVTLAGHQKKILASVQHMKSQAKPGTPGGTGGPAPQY
The procedure: as §1

Where [1] appears, read: KAM 0.001-10 uM, read-out: RB50 (the source's name).
The mark [2] stands for this setting: read-out: RB50 (the source's name).
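Throughout, for 0.001 uM KAM: median log10 fold change of treatment over DMSO control.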
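Throughout, for 0.01 uM KAM: median log10 fold change of treatment over DMSO control.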
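Throughout, for 0.1 uM KAM: median log10 fold change of treatment over DMSO control.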
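Throughout, for 1 uM KAM: median log10 fold change of treatment over DMSO control.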
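Throughout, for 10 uM KAM: median log10 fold change of treatment over DMSO control.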

T1 sequence (P04049 whole entry): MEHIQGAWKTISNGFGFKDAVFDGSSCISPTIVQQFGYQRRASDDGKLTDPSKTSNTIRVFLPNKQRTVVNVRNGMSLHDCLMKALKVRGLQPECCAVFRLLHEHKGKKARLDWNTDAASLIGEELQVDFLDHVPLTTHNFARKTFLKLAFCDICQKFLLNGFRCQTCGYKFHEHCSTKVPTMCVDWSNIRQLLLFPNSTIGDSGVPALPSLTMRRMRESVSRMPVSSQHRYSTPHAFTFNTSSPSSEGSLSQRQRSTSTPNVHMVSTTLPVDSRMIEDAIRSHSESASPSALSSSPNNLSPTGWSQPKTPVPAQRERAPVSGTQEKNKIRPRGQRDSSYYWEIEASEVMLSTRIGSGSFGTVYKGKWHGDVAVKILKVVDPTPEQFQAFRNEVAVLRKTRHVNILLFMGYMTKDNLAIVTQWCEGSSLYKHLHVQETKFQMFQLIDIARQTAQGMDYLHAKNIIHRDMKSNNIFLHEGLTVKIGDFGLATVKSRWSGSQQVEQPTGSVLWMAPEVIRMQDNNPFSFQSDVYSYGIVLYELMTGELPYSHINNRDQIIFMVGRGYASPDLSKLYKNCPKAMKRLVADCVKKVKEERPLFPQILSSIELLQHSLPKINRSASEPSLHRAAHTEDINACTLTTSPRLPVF
T3 sequence (P49760 whole entry): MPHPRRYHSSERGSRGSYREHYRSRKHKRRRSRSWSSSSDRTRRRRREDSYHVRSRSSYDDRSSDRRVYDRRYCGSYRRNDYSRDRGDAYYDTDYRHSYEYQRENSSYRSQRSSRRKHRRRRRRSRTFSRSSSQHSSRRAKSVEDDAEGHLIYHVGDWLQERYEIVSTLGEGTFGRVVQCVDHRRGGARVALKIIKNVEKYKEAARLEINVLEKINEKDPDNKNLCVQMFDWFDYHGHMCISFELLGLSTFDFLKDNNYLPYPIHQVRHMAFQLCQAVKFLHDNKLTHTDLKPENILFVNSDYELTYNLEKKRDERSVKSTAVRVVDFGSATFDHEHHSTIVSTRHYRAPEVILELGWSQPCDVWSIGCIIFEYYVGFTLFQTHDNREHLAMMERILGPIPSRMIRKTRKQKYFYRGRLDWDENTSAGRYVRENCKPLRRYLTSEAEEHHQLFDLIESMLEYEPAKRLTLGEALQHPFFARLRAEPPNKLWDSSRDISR

As for `N#CCc1ccc(Nc2nc(NCCCN)cc(Nc3cc(C4CC4)[nH]n3)n2)cc1` [KAM], the pIC50 at RAF1 (setting [1]) was less than 5.00; at TNK1 (setting [2]) it was 6.70; at CLK2 (setting [1]) it was less than 5.00; at EPHB4 (setting [2]) it was 6.14. Besides, the “0.001 uM KAM” value on RAF1 (relative to 0 uM KAM = 0) is 0.02436; on CLK2 (relative to 0 uM KAM = 0), -0.009153. For the same molecule, the “0.01 uM KAM” value at RAF1 (relative to 0 uM KAM = 0) is -0.01322; on CLK2 (relative to 0 uM KAM = 0), 0.05043. Moreover, the “0.1 uM KAM” value was -0.08739 on RAF1 (relative to 0 uM KAM = 0) and -0.05281 at CLK2 (relative to 0 uM KAM = 0). The “1 uM KAM” value on RAF1 (relative to 0 uM KAM = 0) is given as -0.1339; at CLK2 (relative to 0 uM KAM = 0) it was -0.09929. For the same molecule, the “10 uM KAM” value on RAF1 (relative to 0 uM KAM = 0) is -0.1871; at CLK2 (relative to 0 uM KAM = 0) it was -0.1362. Also, the “median Log10 fold change” value is given as -0.003814 on TNK1 (0.001 uM KAM); -0.02527 at TNK1 (0.01 uM KAM); -0.2865 on TNK1 (0.1 uM KAM); -0.4389 on TNK1 (1 uM KAM); -0.4693 at TNK1 (10 uM KAM); -0.01696 at EPHB4 (0.001 uM KAM). Besides, the “median Log10 fold change” value at EPHB4 (0.01 uM KAM) was -0.007903; on EPHB4 (0.1 uM KAM), -0.1428; on EPHB4 (1 uM KAM) it was -0.3696; on EPHB4 (10 uM KAM), -0.517.
